# In US9925263B2, “Liquid pharmaceutical formulations for injection comprising procaine and uses thereof” (EAGLE BIOLOGICS, INC., priority 2013, dated 2018):
# Where a name gives a salt, the structure may show the parent alone.
# Columns and labels:
# biosimilar AVASTIN® = assay: Viscosity of aqueous solutions of biosimilar AVASTIN® with viscosity-lowering agents; assay type: physicochemical
# Protocol: (§1) (unless otherwise indicated).
# The protein was formulated to contain either 0.25 M phosphate buffer or 0.25 M CSAL.
# Subsequently, the appropriate amount of viscosity-lowering agent was added to result in a final viscosity-lowering agent concentration of 0.15-0.35 M upon reconstitution.
# The viscosity-lowering agent(s) were added in an amount sufficient to give concentration upon reconstitution as specified below. In cases of combinations of agents, the concentration of each component is 0.15 M. The protein solutions were then freeze-dried.
# biosimilar ERBITUX® = assay: Viscosity of aqueous solutions of biosimilar ERBITUX® with viscosity-lowering agents; conditions: 25° C.; for Fold Reduction: vs phosphate buffer
# Protocol: All viscosities of well-mixed aqueous mAb solutions were measured using either a mVROC microfluidic viscometer (RheoSense) or a DV2T cone and plate viscometer (Brookfield; “C & P”) after a 5 minute equilibration at 25° C. (unless otherwise indicated). The mVROC viscometer was equipped with an “A” or “B” chip, each manufactured with a 50 micron channel. Typically, 0.10 mL of protein solution was back-loaded into a gastight microlab instrument syringe (Hamilton; 100 μL), affixed to the chip, and measured at multiple flow rates, approximately 20%, 40%, and 60% of the maximum pressure for each chip. […] An average absolute viscosity and standard deviation was then calculated from at least these three measurements. The C & P viscometer was equipped with a CPE40 or CPE52 spindle (cone angle of 0.8° and 3.0°, respectively) and 0.50 mL samples were measured at multiple shear rates between 2 and 400 s^−1. […] An extrapolated zero-shear viscosity was then determined from a plot of dynamic viscosity versus shear rate for the samples measured on a DV2T cone and plate viscometer. The extrapolated zero-shear viscosities reported are the average and standard deviation of at least three measurements.
# First, Polysorbate 80 was removed using DETERGENT-OUT® TWEEN® Medi Columns (G-Biosciences). […] The collected protein solution was freeze-dried. The dried protein cakes, containing protein and buffer salts or agent, were reconstituted to a final volume of 0.15-1.3 mL. […] Reported protein concentrations represent the range of all protein samples included in each Table or Figure. Specifically, reported values are the median plus or minus half the range. Extrapolated zero-shear using an experimentally determined extinction coefficient of 1.4 L/g·cm and viscosities reported were measured on a DV2T cone and plate viscometer.
# The final concentration of CSAL upon reconstitution in an aqueous CSAL solution ranged from 0.25 M to 0.50 M.
# Specifically, 20 mM solutions of the viscosity-lowering agents of interest were used for buffer exchange, and the lyophilized cakes were reconstituted to 0.25 M of each viscosity-lowering agent. […] The sample was first aliquoted. […] The dried protein cakes, containing protein and viscosity-lowering agent (and a negligible amount of buffer salts) were reconstituted to a final volume of approximately 0.10 mL and viscosity-lowering agent concentration as previously described.
# First, Polysorbate was removed from the commercially obtained mAb solutions.
# Specifically, 20 mM solutions of the salts of interest were used for buffer exchange, and the lyophilized cakes were reconstituted to contain 0.25 M of each agent. Viscosities were measured using either a RheoSense mVROC microfluidic viscometer equipped with an “A” or “B” chip or a DV2T cone and plate viscometer.
# (§2) Subsequently, the aqueous drug product was purified, buffer exchanged, concentrated, dried, reconstituted, and analyzed as described in the same manner. Viscosities reported were measured on a RheoSense mVROC microfluidic viscometer.
# HERCEPTIN® = assay: Viscosity of aqueous solutions of HERCEPTIN® with viscosity-lowering agents; assay type: physicochemical; conditions: 25° C.
# Protocol: All viscosities of well-mixed aqueous mAb solutions were measured using either a mVROC microfluidic viscometer (RheoSense) or a DV2T cone and plate viscometer (Brookfield; “C & P”) after a 5 minute equilibration at 25° C. (unless otherwise indicated). The mVROC viscometer was equipped with an “A” or “B” chip, each manufactured with a 50 micron channel. Typically, 0.10 mL of protein solution was back-loaded into a gastight microlab instrument syringe (Hamilton; 100 μL), affixed to the chip, and measured at multiple flow rates, approximately 20%, 40%, and 60% of the maximum pressure for each chip. […] An average absolute viscosity and standard deviation was then calculated from at least these three measurements. The C & P viscometer was equipped with a CPE40 or CPE52 spindle (cone angle of 0.8° and 3.0°, respectively) and 0.50 mL samples were measured at multiple shear rates between 2 and 400 s^−1. Specifically, samples were measured for 30 seconds each at 22.58, 24.38, 26.25, 28.13, 30, 31.88, 45, 67.5, 90, 112.5, 135, 157.5, 180, 202.5, 247, 270, 292.5, 315, 337.5, 360, 382, 400 s^−1, starting at a shear rate that gave at least 10% torque, and continuing until instrument torque reached 100%. An extrapolated zero-shear viscosity was then determined from a plot of dynamic viscosity versus shear rate for the samples measured on a DV2T cone and plate viscometer. The extrapolated zero-shear viscosities reported are the average and standard deviation of at least three measurements.
# (§3) Viscosities were measured using a RheoSense mVROC microfluidic viscometer equipped with an “A” or “B” chip.
# Viscosities reported were measured on a RheoSense mVROC microfluidic viscometer.
# TYSABRI® = assay: Viscosity of aqueous solutions of TYSABRI® with viscosity-lowering agents; assay type: physicochemical; conditions: 25° C.
# Protocol: All viscosities of well-mixed aqueous mAb solutions were measured using either a mVROC microfluidic viscometer (RheoSense) or a DV2T cone and plate viscometer (Brookfield; “C & P”) after a 5 minute equilibration at 25° C. […] The mVROC viscometer was equipped with an “A” or “B” chip, each manufactured with a 50 micron channel. Typically, 0.10 mL of protein solution was back-loaded into a gastight microlab instrument syringe (Hamilton; 100 μL), affixed to the chip, and measured at multiple flow rates, approximately 20%, 40%, and 60% of the maximum pressure for each chip. […] An average absolute viscosity and standard deviation was then calculated from at least these three measurements. The C & P viscometer was equipped with a CPE40 or CPE52 spindle (cone angle of 0.8° and 3.0°, respectively) and 0.50 mL samples were measured at multiple shear rates between 2 and 400 s^−1. Specifically, samples were measured for 30 seconds each at 22.58, 24.38, 26.25, 28.13, 30, 31.88, 45, 67.5, 90, 112.5, 135, 157.5, 180, 202.5, 247, 270, 292.5, 315, 337.5, 360, 382, 400 s^−1, starting at a shear rate that gave at least 10% torque, and continuing until instrument torque reached 100%. An extrapolated zero-shear viscosity was then determined from a plot of dynamic viscosity versus shear rate for the samples measured on a DV2T cone and plate viscometer. The extrapolated zero-shear viscosities reported are the average and standard deviation of at least three measurements.
# as §3, §2
# VECTIBIX® = assay: Viscosity of aqueous solutions of VECTIBIX® with viscosity-lowering agents; assay type: physicochemical; conditions: 0.25M agent, 25° C., pH 7.0
# Description: as §1
# biosimilar RITUXAN® = assay: Viscosity of aqueous solutions of biosimilar RITUXAN® with viscosity-lowering agents; conditions: 25° C.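 Further: absolute viscosity of aqueous antibody solutions determined by microfluidic viscometry (mVROC chip, 50 micron channel) at several flow rates after 5 min equilibration, mean of at least three readings.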
# REMICADE® [1] = assay: Viscosity of aqueous solutions of […]® with viscosity-lowering agents; assay type: physicochemical; conditions: for Viscosity: 25° C.
# Protocol: as §1
# An extrapolated zero-shear viscosity was determined from a plot of absolute viscosity versus shear rate.
# Following reconstitution, the viscosity of each solution was measured using the microfluidic viscometer as described in previous examples. The solutions were then back-loaded into 1 mL BD insulin syringes with 27, 29, or 31 gauge fixed needles. The force required to extrude the concentrated […]® solutions was then measured using an Instron at a rate of displacement equivalent to a fluid flow rate of 3 mL/min. The expelled solution was collected from the syringe and analyzed by size-exclusion chromatography.
# REMICADE® [2] = assay: Monomer content of […]® solutions by size exclusion chromatography; assay type: physicochemical; conditions: lyophilized powder (cake containing CSAA) stored at 4° C.; reconstituted after 75 days
# antigen = assay: Antigen binding, […]®-specific ELISA assay; conditions: 227 mg/mL, pH 7, 0.25M CSAA, storage at 4° C.
# Protocol: Biophysical properties of solutions of […]® formulated with 0.25 M CSAA were assessed over 90 days. Samples of […]® formulated with 0.25 M CSAA were prepared as described in Example 1 above. […] (Table 20). Additionally, antigen binding of this processed […]® protein was measured with a […]®-specific ELISA assay and no decrease in binding was seen between days 0 and […] (Table 20).
# [3] = 200 ± 5 mg/mL mAb, pH 7.0, 25° C., [Salt] 0.25 M of anion, C & P viscometer
# [4] = 222 ± 5 mg/mL mAb, pH 7.0, 0.25M agent
# [5] = 166 ± 4 mg/mL REMICADE, 0.25M agent, pH 7.0
# [6] = 222 ± 6 mg/mL REMICADE, 0.25M agent, pH 7.0
# [7] = 202 ± 2 mg/mL RITUXAN, 0.25M agent, pH 7.0
compound,measurement,setting,value
"Cl.N=C(N)NCCC[C@H](N)C(=O)O [Arginine•HCl, arginine HCl, reference compound]",Viscosity,biosimilar AVASTIN®; [3],83.2 ± 2.8 cP
same,Viscosity,"biosimilar AVASTIN®; 200 ± 5 mg/mL mAb, pH 7.0, 25° C., [Salt] 0.3 M of anion, C & P viscometer",71.8 ± 2.2 cP
same,Viscosity,biosimilar ERBITUX®; [4],45.3 ± 0.5 cP
same,Fold Reduction,biosimilar ERBITUX®; [4],24.9 fold
same,Viscosity,"HERCEPTIN®; 216 ± 0 mg/mL HERCEPTIN, 0.25M salt, pH 7.0",44.8 ± 1.1 cP
same,Viscosity,"HERCEPTIN®; 254 ± 3 mg/mL HERCEPTIN, 0.25M salt, pH 7.0",116 ± 24 cP
same,Viscosity,"HERCEPTIN®; 270 ± 6 mg/mL HERCEPTIN, 0.25M salt, pH 7.0",179 ± 17 cP
same,Viscosity,"TYSABRI®; 230 ± 2 mg/mL TYSABRI, 0.25M agent, pH 7.0",37.0 ± 0.1 cP
same,Viscosity,"TYSABRI®; 237 ± 4 mg/mL TYSABRI, 0.25M agent, pH 7.0",52.3 ± 4.5 cP
same,Viscosity,"TYSABRI®; 276 ± 8 mg/mL TYSABRI, 0.25M agent, pH 7.0",97.2 ± 5.7 cP
same,Viscosity,VECTIBIX®; 233 ± 4 mg/mL VECTIBIX,24.7 ± 1.3 cP
same,Viscosity,VECTIBIX®; 252 ± 3 mg/mL VECTIBIX,36.2 ± 1.0 cP
same,Viscosity,"biosimilar RITUXAN®; 220 mg/mL RITUXAN (footnote *), 0.45M agent, pH 7.0",86.8 ± 1.8
same,Viscosity,"biosimilar RITUXAN®; 202 ± 2 mg/mL RITUXAN, 0.45M agent, pH 7.0",46.9 ± 0.8
same,Viscosity,REMICADE® [1]; [5],110 ± 1 cP
same,Viscosity,REMICADE® [1]; [6],486 ± 34 cP
O=C([O-])CCCC[C@@H]1SC[C@@H]2NC(=O)N[C@@H]21.[Na+] [Biotin-Na],Viscosity,"biosimilar AVASTIN®; 189 mg/mL mAb, agent […], 25° C.",45.1 ± 0.9 cP
same,Viscosity,"HERCEPTIN®; 230 mg/mL HERCEPTIN, […] agent",69.9 ± 2.3 cP
same,Viscosity,"TYSABRI®; 233 mg/mL TYSABRI, […] agent",75.8 ± 0.4 cP
"CC1(C)C2CCC1(CS(=O)(=O)O)C(=O)C2 (centres unmarked) [CSA sodium salt, Camphorsulfonic acid]",Viscosity,biosimilar AVASTIN®; [3],55.7 ± 0.2 cP
same,Viscosity,biosimilar ERBITUX®; [4],393 ± 14 cP
same,Fold Reduction,biosimilar ERBITUX®; [4],2.9 fold
same,Viscosity,biosimilar RITUXAN®; [7],76.1 ± 1.3
"CO/N=C(\C(=O)N[C@@H]1C(=O)N2C(C(=O)O)=C(CSc3nc(=O)c(=O)[nH]n3C)CS[C@H]12)c1csc(N)n1 [Ceftriaxone sodium salt, reference compound]",Viscosity,"biosimilar AVASTIN®; 198 mg/mL mAb, agent […], 25° C.",301 ± 5 cP
same,Viscosity,"biosimilar ERBITUX®; 190 mg/mL mAb, […] agent",120 ± 2 cP
same,Viscosity,"biosimilar RITUXAN®; 222 mg/mL mAb, […] agent",198 ± 17 cP
"CCN(CC)CCCC(C)Nc1ccnc2cc(Cl)ccc12 (centres unmarked) [Chloroquine Phosphate, reference compound]",Viscosity,"biosimilar AVASTIN®; 200 mg/mL mAb, agent 0.10M, 25° C.",27.9 ± 0.6 cP
same,Viscosity,"biosimilar AVASTIN®; 219 mg/mL mAb, agent 0.10M, 25° C.",58.6 ± 1.6 cP
same,Viscosity,"biosimilar AVASTIN®; 228 mg/mL mAb, agent 0.10M, 25° C.",71.8 ± 0.9 cP
same,Viscosity,"biosimilar ERBITUX®; 179 mg/mL mAb, 0.10M agent",37.4 ± 0.9 cP
same,Viscosity,"biosimilar ERBITUX®; 199 mg/mL mAb, 0.10M agent",54.8 ± 0.2 cP
same,Viscosity,"biosimilar RITUXAN®; 210 mg/mL mAb, 0.10M agent",67.1 ± 1.1 cP
"CN/C(=N/CCSCc1nc[nH]c1C)NC#N [Cimetidine HCl, reference compound]",Viscosity,"biosimilar AVASTIN®; 203 mg/mL mAb, agent […], 25° C.",53.8 ± 2.4 cP
same,Viscosity,"biosimilar ERBITUX®; 183 mg/mL mAb, […] agent",19.7 ± 0.2 cP
same,Viscosity,"biosimilar RITUXAN®; 215 mg/mL mAb, […] agent",49.5 ± 1.2 cP
"CN1C2CCCC1CC(NC(=O)c1nn(C)c3ccccc13)C2 (centres unmarked) [Granisetron HCl, reference compound]",Viscosity,"biosimilar AVASTIN®; 168 mg/mL mAb, agent […], 25° C.",37.9 ± 0.6 cP
same,Viscosity,"biosimilar AVASTIN®; 237 mg/mL mAb, agent […], 25° C.",308 ± 34 cP
same,Viscosity,"biosimilar ERBITUX®; 180 mg/mL mAb, […] agent",23.0 ± 0.2 cP
same,Viscosity,"biosimilar RITUXAN®; 204 mg/mL mAb, […] agent",51.2 ± 0.8 cP
"CC[C@@H](C(N)=O)N1CCCC1=O [Levetiracetam, reference compound]",Viscosity,"biosimilar ERBITUX®; 176 mg/mL mAb, […] agent",103 ± 3 cP
same,Viscosity,"biosimilar ERBITUX®; 199 mg/mL mAb, […] agent",178 ± 2 cP
same,Viscosity,"biosimilar RITUXAN®; 205 mg/mL mAb, […] agent",130 ± 2 cP
"CC1(C)S[C@@H]2[C@H](NC(=O)Cc3ccccc3)C(=O)N2[C@H]1C(=O)[O-].[Na+] [Penicillin G sodium salt, reference compound]",Viscosity,"biosimilar ERBITUX®; 178 mg/mL mAb, […] agent",82.1 ± 3.6 cP
same,Viscosity,"biosimilar RITUXAN®; 207 mg/mL mAb, […] agent",114 ± 7 cP
"CCN(CC)CCOC(=O)c1ccc(N)cc1 [Procaine HCl, reference compound]",Viscosity,"biosimilar AVASTIN®; 188 mg/mL mAb, agent […], 25° C.",40.8 ± 0.9 cP
same,Viscosity,"biosimilar AVASTIN®; 222 mg/mL mAb, agent […], 25° C.",65.8 ± 0.8 cP
same,Viscosity,"biosimilar ERBITUX®; 230 mg/mL mAb, […] agent",35.9 ± 0.3 cP
same,Viscosity,"HERCEPTIN®; 222 mg/mL HERCEPTIN, […] agent",41.8 ± 0.6 cP
same,Viscosity,"TYSABRI®; 228 mg/mL TYSABRI, […] agent",45.1 ± 1.5 cP
same,Viscosity,"biosimilar RITUXAN®; 195 mg/mL mAb, […] agent",33.4 ± 1.2 cP
same,Viscosity,"biosimilar RITUXAN®; 222 mg/mL mAb, […] agent",46.2 ± 1.1 cP
same,Viscosity,"REMICADE® [1]; 174 mg/mL REMICADE, […] agent",23.4 ± 0.2 cP
"CN1[C@@H]2C[C@@H](OC(=O)[C@H](CO)c3ccccc3)C[C@H]1[C@@H]1O[C@@H]12 [Scopolamine HBr, reference compound]",Viscosity,"biosimilar AVASTIN®; 210 mg/mL mAb, agent […], 25° C.",35.3 ± 1.1 cP
same,Viscosity,"biosimilar AVASTIN®; 223 mg/mL mAb, agent […], 25° C.",64.0 ± 0.8 cP
same,Viscosity,"biosimilar AVASTIN®; 238 mg/mL mAb, agent […], 25° C.",87.8 ± 1.5 cP
same,Viscosity,"biosimilar ERBITUX®; 173 mg/mL mAb, […] agent",23.4 ± 0.6 cP
same,Viscosity,"biosimilar RITUXAN®; 197 mg/mL mAb, […] agent",42.3 ± 1.0 cP
CSA-Na-Ornidazole,Viscosity,"HERCEPTIN®; 232 mg/mL HERCEPTIN, […] agent",60.1 ± 0.6 cP
same,Viscosity,"biosimilar RITUXAN®; 188 mg/mL mAb, […] agent",40.7 ± 0.5 cP
same,Viscosity,"biosimilar RITUXAN®; 242 mg/mL mAb, […] agent",63.0 ± 3.5 cP
Colistin sulfate salt [reference compound],Viscosity,"biosimilar AVASTIN®; 240 mg/mL mAb, agent […], 25° C.",261 ± 58 cP
same,Viscosity,"biosimilar ERBITUX®; 203 mg/mL mAb, […] agent",138 ± 4 cP
same,Viscosity,"biosimilar RITUXAN®; 230 mg/mL mAb, […] agent",228 ± 19 cP
Ethane disulfonate-diTris-2Na,Viscosity,"biosimilar AVASTIN®; 219 mg/mL mAb, […] agent, pH 7.0, 25° C., microfluidic",>150 cP
same,Viscosity,"biosimilar RITUXAN®; 191 mg/mL mAb, […] agent",80.3 ± 16.0 cP
HEPES-Tris,Viscosity,"biosimilar AVASTIN®; 214 mg/mL mAb, agent […], 25° C.",90.5 ± 1.8 cP
same,Viscosity,"biosimilar RITUXAN®; 191 mg/mL mAb, […] agent",50.0 ± 3.8 cP
"REMICADE ®: infliximab, mAb against TNF-α; here concentrated solution formulated with 0.25 M CSAA",% Monomer (SEC),REMICADE® [2],98.9 ± 0.1%
same,% binding (ELISA),antigen; day 0,105 ± 14%
same,% binding (ELISA),antigen; day 30,98 ± 12%
same,% binding (ELISA),antigen; day 100,101 ± 5%
sulfosalicylic acid di-arginine [Sulfosalicylic acid diarginine],Viscosity,"biosimilar AVASTIN®; 228 ± 5 mg/mL mAb, agent […], 25° C., pH 7.0",81.6 ± 1.7 cP
same,Viscosity,"biosimilar RITUXAN®; 220 mg/mL RITUXAN (footnote *), 0.25M agent, pH 7.0",68.3 ± 0.8
same,Viscosity,biosimilar RITUXAN®; [7],44.1 ± 0.1
same,Viscosity reduction,"REMICADE® [1]; 0.25M agent vs PB, Table 17",about 29 fold
same,Viscosity,REMICADE® [1]; [5],27.1 ± 0.3 cP
same,Viscosity,REMICADE® [1]; [6],55.9 ± 1.8 cP
